Test results from publication PMC9979715 (Blood Advances, 2022).

Target: T1, MAP2K7 (Homo sapiens, UniProt O14733)
T1 sequence (O14733 2-419): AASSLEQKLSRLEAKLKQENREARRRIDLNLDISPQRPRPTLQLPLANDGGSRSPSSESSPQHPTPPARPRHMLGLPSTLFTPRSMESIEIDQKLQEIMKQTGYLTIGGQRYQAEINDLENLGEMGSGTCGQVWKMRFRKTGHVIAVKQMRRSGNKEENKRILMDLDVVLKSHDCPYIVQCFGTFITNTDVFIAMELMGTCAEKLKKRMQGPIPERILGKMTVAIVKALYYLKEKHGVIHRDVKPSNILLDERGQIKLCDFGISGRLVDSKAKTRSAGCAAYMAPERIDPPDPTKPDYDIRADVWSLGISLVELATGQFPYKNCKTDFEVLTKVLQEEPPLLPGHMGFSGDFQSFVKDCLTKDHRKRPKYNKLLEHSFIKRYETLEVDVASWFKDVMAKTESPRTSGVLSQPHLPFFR
Assay: ADP-Glo kinase assay, purified human MAP2K7 with dead-JNK2 substrate and ATP
Type: biochemical

SMILES: CC(=O)c1cnc2ccc(-c3cc(Cl)c(O)c(Cl)c3)nc2c1N[C@H]1CC[C@H](CN(C)C)CC1 [OTSSP167]
- IC50: 160 nM
